The record followed here is US12291519B2, “2-hydroxycycloalkane-1-carbamoyl” (Idorsia Pharmaceuticals Ltd, priority 2019, dated 2025).

The target in one test is human Gal-3 (hGal-3) (Homo sapiens (Human), UniProt P17931). Briefly: Competitive binding assay: biotinylated hGal-3 binding to microplate-adsorbed asialofetuin (ASF). As to conditions: Activity on hGal-3; binding of biotinylated hGal-3 to ASF-coated plates; mean values. A digest of the protocol: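 Serially diluted compounds competed with biotinylated human Gal-3 for binding to plate-adsorbed asialofetuin over 3 h at 4 °C. Bound Gal-3 was detected with streptavidin-peroxidase (80 ng/mL, 1 h, 4 °C) and ABTS substrate. IC50 values are means of several measurements.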
human Gal-3 (hGal-3), sequence (P17931 whole entry): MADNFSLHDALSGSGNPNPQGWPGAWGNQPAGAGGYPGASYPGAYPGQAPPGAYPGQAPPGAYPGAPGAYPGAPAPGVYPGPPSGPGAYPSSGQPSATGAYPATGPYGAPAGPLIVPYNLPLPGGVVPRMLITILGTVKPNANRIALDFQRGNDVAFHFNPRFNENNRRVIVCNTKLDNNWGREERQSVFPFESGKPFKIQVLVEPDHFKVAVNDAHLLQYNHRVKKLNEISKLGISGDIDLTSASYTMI

A further test deals with human Gal-1 (hGal-1). Briefly: Competitive binding assay: biotinylated hGal-1 binding to microplate-adsorbed asialofetuin (ASF). The settings on record: Activity on hGal-1; binding of biotinylated hGal-1 to ASF-coated plates; mean values. A digest of the protocol: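 Biotinylated hGal-1 (300–1000 ng/mL; optionally a cysteine-free all-serine variant) incubated 3 h at 4 °C with compound on asialofetuin-coated plates, then streptavidin-peroxidase 1 h at 4 °C. ABTS readout at OD 410 nm after 30–45 min; IC50 given as mean of several runs.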
human Gal-1 (hGal-1), sequence (P09382 2-135 limits assumed): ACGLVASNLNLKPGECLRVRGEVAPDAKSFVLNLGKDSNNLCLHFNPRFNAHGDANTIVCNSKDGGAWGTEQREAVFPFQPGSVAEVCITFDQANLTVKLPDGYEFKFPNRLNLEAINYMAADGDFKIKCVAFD

As a reminder, the IC50 is the concentration needed to halve the response being measured. A low value points to greater potency in that assay. Regarding `CO[C@@H]1[C@@H](n2cc(-c3cc(F)cc(Br)c3)nn2)[C@@H](O)[C@@H](CO)O[C@H]1C(=O)N(c1cccc(Cl)c1)[C@H]1CCCC[C@@H]1O` [Example 149, (2R,3R,4S,5R,6R)-4-(4-(3-bromo-5-fluorophenyl)-1H-1,2,3-triazol-1-yl)-N-(3-chlorophenyl)-5-hydroxy-N-((1S,2S)-2-hydroxycyclohexyl)-6-(hydroxymethyl)-3-methoxytetrahydro-2H-pyran-2-carboxamide], the IC50 at human Gal-3 (hGal-3) came out at 85 nM; on human Gal-1 (hGal-1), 707 nM.

As for `COc1cc(C#N)cc(N(C(=O)[C@@H]2O[C@H](CO)[C@H](O)[C@H](n3cc(-c4cc(F)cc(Br)c4)nn3)[C@H]2OC)[C@H]2CCCC[C@@H]2O)c1` [Example 150, (2R,3R,4S,5R,6R)-4-(4-(3-bromo-5-fluorophenyl)-1H-1,2,3-triazol-1-yl)-N-(3-cyano-5-methoxyphenyl)-5-hydroxy-N-((1S,2S)-2-hydroxycyclohexyl)-6-(hydroxymethyl)-3-methoxytetrahydro-2H-pyran-2-carboxamide], the IC50 on human Gal-3 (hGal-3) stood at 62 nM; on human Gal-1 (hGal-1) it was 671 nM.

`CO[C@@H]1[C@@H](n2cc(-c3cc(F)c(Br)c(F)c3)nn2)[C@@H](O)[C@@H](CO)O[C@H]1C(=O)N(c1cc(Cl)cc(Cl)c1)[C@H]1CCCC[C@@H]1O` [Example 151, (2R,3R,4S,5R,6R)-4-(4-(4-bromo-3,5-difluorophenyl)-1H-1,2,3-triazol-1-yl)-N-(3,5-dichlorophenyl)-5-hydroxy-N-((1S,2S)-2-hydroxycyclohexyl)-6-(hydroxymethyl)-3-methoxytetrahydro-2H-pyran-2-carboxamide]: the half-inhibitory concentration (IC50) on human Gal-3 (hGal-3) is 37 nM; at human Gal-1 (hGal-1), 1130 nM.

Regarding `CO[C@@H]1[C@@H](n2cc(-c3cc(F)c(Br)c(F)c3)nn2)[C@@H](O)[C@@H](CO)O[C@H]1C(=O)N(c1ccc(F)c(F)c1)[C@H]1CCCC[C@@H]1O` [Example 152, (2R,3R,4S,5R,6R)-4-(4-(4-bromo-3,5-difluorophenyl)-1H-1,2,3-triazol-1-yl)-N-(3,4-difluorophenyl)-5-hydroxy-N-((1S,2S)-2-hydroxycyclohexyl)-6-(hydroxymethyl)-3-methoxytetrahydro-2H-pyran-2-carboxamide], the half-maximal inhibitory concentration (IC50) on human Gal-3 (hGal-3) stood at 62 nM; at human Gal-1 (hGal-1), 3140 nM.

`CO[C@@H]1[C@@H](n2cc(-c3cc(F)c(Br)c(F)c3)nn2)[C@@H](O)[C@@H](CO)O[C@H]1C(=O)N(c1ccc2scnc2c1)[C@H]1CCCC[C@@H]1O` [Example 153, (2R,3R,4S,5R,6R)-N-(benzo[d]thiazol-5-yl)-4-(4-(4-bromo-3,5-difluorophenyl)-1H-1,2,3-triazol-1-yl)-5-hydroxy-N-((1S,2S)-2-hydroxycyclohexyl)-6-(hydroxymethyl)-3-methoxytetrahydro-2H-pyran-2-carboxamide]: the IC50 on human Gal-3 (hGal-3) stood at 25 nM; on human Gal-1 (hGal-1), 1080 nM.

`CO[C@@H]1[C@@H](n2cc(-c3cc(F)c(Br)c(F)c3)nn2)[C@@H](O)[C@@H](CO)O[C@H]1C(=O)N(c1cc(Cl)cc(C#N)c1)[C@H]1CCCC[C@@H]1O` [Example 154, (2R,3R,4S,5R,6R)-4-(4-(4-bromo-3,5-difluorophenyl)-1H-1,2,3-triazol-1-yl)-N-(3-chloro-5-cyanophenyl)-5-hydroxy-N-((1S,2S)-2-hydroxycyclohexyl)-6-(hydroxymethyl)-3-methoxytetrahydro-2H-pyran-2-carboxamide]: the results for the IC50 on human Gal-3 (hGal-3) and at human Gal-1 (hGal-1) were 23 nM and 957 nM, respectively.

Take `CO[C@@H]1[C@@H](n2cc(-c3cc(F)c(Br)c(F)c3)nn2)[C@@H](O)[C@@H](CO)O[C@H]1C(=O)N(c1cc(F)cc(C#N)c1)[C@H]1CCCC[C@@H]1O` [Example 155, (2R,3R,4S,5R,6R)-4-(4-(4-bromo-3,5-difluorophenyl)-1H-1,2,3-triazol-1-yl)-N-(3-cyano-5-fluorophenyl)-5-hydroxy-N-((1S,2S)-2-hydroxycyclohexyl)-6-(hydroxymethyl)-3-methoxytetrahydro-2H-pyran-2-carboxamide]: the IC50 came out at 24 nM at human Gal-3 (hGal-3) and 1510 nM at human Gal-1 (hGal-1).

On to `CO[C@@H]1[C@@H](n2cc(-c3cc(F)c(C)c(F)c3)nn2)[C@@H](O)[C@@H](CO)O[C@H]1C(=O)N(c1cc(Cl)cc(Cl)c1)[C@H]1CCCC[C@@H]1O` [Example 158, (2R,3R,4S,5R,6R)-N-(3,5-dichlorophenyl)-4-(4-(3,5-difluoro-4-methylphenyl)-1H-1,2,3-triazol-1-yl)-5-hydroxy-N-((1S,2S)-2-hydroxycyclohexyl)-6-(hydroxymethyl)-3-methoxytetrahydro-2H-pyran-2-carboxamide], for which the 50% inhibitory concentration (IC50) at human Gal-3 (hGal-3) was found to be 15 nM; at human Gal-1 (hGal-1) it was 798 nM.

In the case of `CO[C@@H]1[C@@H](n2cc(-c3cc(F)c(C)c(F)c3)nn2)[C@@H](O)[C@@H](CO)O[C@H]1C(=O)N(c1cc(Cl)cc(C#N)c1)[C@H]1CCCC[C@@H]1O` [Example 159, (2R,3R,4S,5R,6R)-N-(3-chloro-5-cyanophenyl)-4-(4-(3,5-difluoro-4-methylphenyl)-1H-1,2,3-triazol-1-yl)-5-hydroxy-N-((1S,2S)-2-hydroxycyclohexyl)-6-(hydroxymethyl)-3-methoxytetrahydro-2H-pyran-2-carboxamide], the 50% inhibitory concentration (IC50) on human Gal-3 (hGal-3) is 12 nM; at human Gal-1 (hGal-1), 528 nM.

As to `CO[C@@H]1[C@@H](n2cc(-c3cc(F)c(C)c(F)c3)nn2)[C@@H](O)[C@@H](CO)O[C@H]1C(=O)N(c1cc(F)cc(C#N)c1)[C@H]1CCCC[C@@H]1O` [Example 161, (2R,3R,4S,5R,6R)-N-(3-cyano-5-fluorophenyl)-4-(4-(3,5-difluoro-4-methylphenyl)-1H-1,2,3-triazol-1-yl)-5-hydroxy-N-((1S,2S)-2-hydroxycyclohexyl)-6-(hydroxymethyl)-3-methoxytetrahydro-2H-pyran-2-carboxamide], the 50% inhibitory concentration (IC50) on human Gal-3 (hGal-3) is 25 nM; at human Gal-1 (hGal-1), 2170 nM.

Consider `CO[C@@H]1[C@@H](n2cc(-c3ccc(F)c(F)c3)nn2)[C@@H](O)[C@@H](CO)O[C@H]1C(=O)N(c1cc(Cl)cc(Cl)c1)[C@H]1CCCC[C@@H]1O` [Example 162, (2R,3R,4S,5R,6R)-N-(3,5-dichlorophenyl)-4-(4-(3,4-difluorophenyl)-1H-1,2,3-triazol-1-yl)-5-hydroxy-N-((1S,2S)-2-hydroxycyclohexyl)-6-(hydroxymethyl)-3-methoxytetrahydro-2H-pyran-2-carboxamide], for which the half-maximal inhibitory concentration (IC50) on human Gal-3 (hGal-3) came out at 32 nM; on human Gal-1 (hGal-1), 134 nM.

Take `CO[C@@H]1[C@@H](n2cc(-c3ccc(Br)c(F)c3)nn2)[C@@H](O)[C@@H](CO)O[C@H]1C(=O)N(c1cc(Cl)cc(Cl)c1)[C@H]1CCCC[C@@H]1O` [Example 163, (2R,3R,4S,5R,6R)-4-(4-(4-bromo-3-fluorophenyl)-1H-1,2,3-triazol-1-yl)-N-(3,5-dichlorophenyl)-5-hydroxy-N-((1S,2S)-2-hydroxycyclohexyl)-6-(hydroxymethyl)-3-methoxytetrahydro-2H-pyran-2-carboxamide]: the IC50 at human Gal-3 (hGal-3) was 18 nM; on human Gal-1 (hGal-1), 1270 nM.

Regarding `CO[C@@H]1[C@@H](n2cc(-c3ccc(Br)c(F)c3)nn2)[C@@H](O)[C@@H](CO)O[C@H]1C(=O)N(c1ccc(F)c(F)c1)[C@H]1CCCC[C@@H]1O` [Example 164, (2R,3R,4S,5R,6R)-4-(4-(4-bromo-3-fluorophenyl)-1H-1,2,3-triazol-1-yl)-N-(3,4-difluorophenyl)-5-hydroxy-N-((1S,2S)-2-hydroxycyclohexyl)-6-(hydroxymethyl)-3-methoxytetrahydro-2H-pyran-2-carboxamide], the half-maximal inhibitory concentration (IC50) at human Gal-3 (hGal-3) came to 58 nM; at human Gal-1 (hGal-1), 1940 nM.

As to `CO[C@@H]1[C@@H](n2cc(-c3ccc(Br)c(F)c3)nn2)[C@@H](O)[C@@H](CO)O[C@H]1C(=O)N(c1cc(Cl)cc(C#N)c1)[C@H]1CCCC[C@@H]1O` [Example 165, (2R,3R,4S,5R,6R)-4-(4-(4-bromo-3-fluorophenyl)-1H-1,2,3-triazol-1-yl)-N-(3-chloro-5-cyanophenyl)-5-hydroxy-N-((1S,2S)-2-hydroxycyclohexyl)-6-(hydroxymethyl)-3-methoxytetrahydro-2H-pyran-2-carboxamide], the IC50 came out at 34 nM at human Gal-3 (hGal-3) and 792 nM at human Gal-1 (hGal-1).

`CO[C@@H]1[C@@H](n2cc(-c3cc(F)c(Cl)c(Cl)c3)nn2)[C@@H](O)[C@@H](CO)O[C@H]1C(=O)N(c1cc(Cl)cc(Cl)c1)[C@H]1CCCC[C@@H]1O` [Example 166, (2R,3R,4S,5R,6R)-4-(4-(3,4-dichloro-5-fluorophenyl)-1H-1,2,3-triazol-1-yl)-N-(3,5-dichlorophenyl)-5-hydroxy-N-((1S,2S)-2-hydroxycyclohexyl)-6-(hydroxymethyl)-3-methoxytetrahydro-2H-pyran-2-carboxamide]: the IC50 turned out to be 22 nM on human Gal-3 (hGal-3) and 1340 nM at human Gal-1 (hGal-1).

As to `CO[C@@H]1[C@@H](n2cc(-c3cc(F)c(Cl)c(Cl)c3)nn2)[C@@H](O)[C@@H](CO)O[C@H]1C(=O)N(c1ccc(F)c(F)c1)[C@H]1CCCC[C@@H]1O` [Example 167, (2R,3R,4S,5R,6R)-4-(4-(3,4-dichloro-5-fluorophenyl)-1H-1,2,3-triazol-1-yl)-N-(3,4-difluorophenyl)-5-hydroxy-N-((1S,2S)-2-hydroxycyclohexyl)-6-(hydroxymethyl)-3-methoxytetrahydro-2H-pyran-2-carboxamide], the half-maximal inhibitory concentration (IC50) at human Gal-3 (hGal-3) came out at 64 nM; on human Gal-1 (hGal-1), 1240 nM.

For the compound `CO[C@@H]1[C@@H](n2cc(-c3cc(F)c(Cl)c(Cl)c3)nn2)[C@@H](O)[C@@H](CO)O[C@H]1C(=O)N(c1ccc2ncsc2c1)[C@H]1CCCC[C@@H]1O` [Example 168, (2R,3R,4S,5R,6R)-N-(benzo[d]thiazol-6-yl)-4-(4-(3,4-dichloro-5-fluorophenyl)-1H-1,2,3-triazol-1-yl)-5-hydroxy-N-((1S,2S)-2-hydroxycyclohexyl)-6-(hydroxymethyl)-3-methoxytetrahydro-2H-pyran-2-carboxamide], the IC50 at human Gal-3 (hGal-3) is 25 nM; at human Gal-1 (hGal-1) it was 672 nM.
